Measured values from patent US8957062B2, “Substituted cyclopropyl compounds, compositions containing such compounds and methods of treatment” (Merck Sharp & Dohme Corp., priority 2011, dated 2015).

Tested on: not given
Experiment: not given
Details: not given

melting point | SMILES
68 to 70 °C | COCc1noc(N2CCC([C@H]3C[C@H]3CCOc3ccc(S(C)(=O)=O)cn3)CC2)n1 [Example 208, 3-(methoxymethyl)-5-(4-((1R,2S)-2-(2-(5-(methylsulfonyl)pyridin-2-yloxy)ethyl)cyclopropyl)piperidin-1-yl)-1,2,4-oxadiazole]

Molecular target: T1, human GPR119 (Homo sapiens, UniProt Q8TDV5)
T1 sequence (Q8TDV5 1-308 limits assumed): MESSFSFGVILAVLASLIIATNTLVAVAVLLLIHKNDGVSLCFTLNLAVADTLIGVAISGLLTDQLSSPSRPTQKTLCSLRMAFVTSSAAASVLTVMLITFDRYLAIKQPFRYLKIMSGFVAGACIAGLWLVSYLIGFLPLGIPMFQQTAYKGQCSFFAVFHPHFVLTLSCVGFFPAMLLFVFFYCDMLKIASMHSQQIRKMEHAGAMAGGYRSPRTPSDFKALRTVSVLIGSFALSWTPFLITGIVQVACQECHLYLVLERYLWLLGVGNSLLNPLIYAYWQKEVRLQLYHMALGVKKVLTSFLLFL
Experiment: Measurement of GPR119 signaling (cAMP assay) in cells stably transfected with human GPR119
Assay type: cell-based
Details: cAMP stimulation; read-out: GPR119 HumC EC50

EC50 | SMILES
0.26 nM | CC(C)c1noc(N2CCC([C@H]3C[C@H]3CCOc3cc(F)c(CC(=O)N(C)C)c(F)c3)CC2)n1 [Example 111]
0.88 nM | CC1(OC(=O)N2CCC([C@H]3C[C@H]3CCOc3ccc(CC(=O)N4CC(F)C4)c(F)c3)CC2)CC1 [Example 63]
0.58 nM | CC(C)c1noc(N2CCC([C@H]3C[C@H]3CCOc3ccc(CC(=O)N4CCC4)c(Cl)c3)CC2)n1 [Example 103]
0.12 nM | CC(C)c1noc(N2CCC([C@H]3C[C@H]3CCOc3cc(F)c(CC(=O)N4CC(F)C4)c(F)c3)CC2)n1 [Example 110]

Same assay, conditions: stated in the example text; cAMP stimulation, human GPR119; read-out: GPR119 Human EC50

EC50 | SMILES
7 nM | COCc1noc(N2CCC([C@H]3C[C@H]3CCOc3ccc(S(C)(=O)=O)cn3)CC2)n1 [Example 208, 3-(methoxymethyl)-5-(4-((1R,2S)-2-(2-(5-(methylsulfonyl)pyridin-2-yloxy)ethyl)cyclopropyl)piperidin-1-yl)-1,2,4-oxadiazole]
5.9 nM | CC1(OC(=O)N2CCC([C@H]3C[C@H]3CCOc3ccc(CC(=O)N4CCC4)cc3)CC2)CC1 [Example 57]
8 nM | Cc1cc(CC(=O)N2CC(F)C2)cnc1OCC[C@@H]1C[C@@H]1C1CCN(c2nc(C(C)C)no2)CC1 [Example 258, 5-[2-(3-fluoroazetidin-1-yl)-2-oxoethyl]-2-(2-{(1S,2R)-2-[1-(3-isopropyl-1,2,4-oxadiazol-5-yl)piperidin-4-yl]cyclopropyl}ethoxy)-3-methylpyridine]

Same assay, conditions: table column; cAMP stimulation, human GPR119; read-out: GPR119 Human EC50

SMILES | EC50
CC(C)c1noc(N2CCC([C@H]3C[C@H]3CCOc3ccc(CC(=O)N4CCC4)c(F)c3)CC2)n1 [Example 138] | 2 nM
CC(C)c1noc(N2CCC([C@H]3C[C@H]3CCOc3ccc(CC(=O)N(C)C)c(F)c3)CC2)n1 [Example 143] | 0.94 nM
Cc1cc(CC(=O)N(C)C2CCS(=O)(=O)C2)cnc1OCC[C@@H]1C[C@@H]1C1CCN(c2nc(C(C)C)no2)CC1 (some centres unmarked) [Example 264] | 11 nM
O=C(CC1(c2ccccc2)CCC1)N1CCC([C@H]2C[C@H]2CCOc2ccc(-n3cnnn3)cc2)CC1 [Example 83] | 15 nM
CC(C)c1noc(N2CCC([C@H]3C[C@H]3CCOc3ccc(CC(=O)N(C)CC4CCC(=O)N4)c(F)c3)CC2)n1 (some centres unmarked) [Example 170] | 7.9 nM
CC(C)c1noc(N2CCC([C@H]3C[C@H]3CCOc3ccc(CC(=O)N(C)Cc4cncs4)c(F)c3)CC2)n1 [Example 171] | 1.5 nM
CC(C)c1noc(N2CCC([C@H]3C[C@H]3CCOc3ccc(CC(=O)N4CC(c5cccnc5)C4)c(F)c3)CC2)n1 [Example 190] | 3.6 nM
CC(C)c1noc(N2CCC([C@H]3C[C@H]3CCOc3ccc(CC(=O)N4CCn5ncnc5C4)c(F)c3)CC2)n1 [Example 195] | 1.6 nM
Cc1nc2c(o1)CCN(C(=O)Cc1ccc(OCC[C@@H]3C[C@@H]3C3CCN(c4nc(C(C)C)no4)CC3)cc1F)C2 [Example 196] | 1.4 nM
O=C(CC1CCC1)N1CCC([C@H]2C[C@H]2CCOc2ccc(-n3cnnn3)cc2)CC1 [Example 81] | 15 nM
Cc1cc(-n2cnnn2)cnc1OCC[C@@H]1C[C@@H]1C1CCN(c2nc(C(C)O)no2)CC1 (some centres unmarked) [Example 229] | 5 nM
CC(C)c1noc(N2CCC([C@H]3C[C@H]3CCOc3ccc(CC(=O)N(C)Cc4cc[nH]n4)c(F)c3)CC2)n1 [Example 167] | 3.1 nM
O=C(CC1CCCC1)N1CCC([C@H]2C[C@H]2CCOc2ccc(-n3cnnn3)cc2)CC1 [Example 82] | 16 nM
CS(=O)(=O)c1ccc(OCC[C@@H]2C[C@@H]2C2CCN(C(=O)CC3CCCC3)CC2)cc1F [Example 93] | 4.6 nM
CC(C)c1noc(N2CCC([C@H]3C[C@H]3CCOc3ccc(CC(=O)N(C)C4CCOCC4)c(F)c3)CC2)n1 [Example 160] | 4.8 nM
CC(C)c1noc(N2CCC([C@H]3C[C@H]3CCOc3ccc(CC(=O)N(C)C)cc3)CC2)n1 [Example 137] | 6.7 nM
O=C(NC1CC1)c1c(F)cc(OCC[C@@H]2C[C@@H]2C2CCN(C(=O)CCC(F)(F)F)CC2)cc1F [Example 97] | 3.5 nM
COC1CN(C(=O)Cc2cnc(OCC[C@@H]3C[C@@H]3C3CCN(c4nc(C(C)C)no4)CC3)c(C)c2)C1 [Example 261] | 19 nM

Continued, values first:

EC50 | SMILES
22 nM | CCOC(=O)N1CCC([C@H]2C[C@H]2CCOc2ccc(S(C)(=O)=O)cn2)CC1 [Example 20]
14.5 nM | CCS(=O)(=O)c1ccc(OCC[C@@H]2C[C@@H]2C2CCN(C(=O)OC3(C)CC3)CC2)cc1 [Example 36]
4.6 nM | CS(=O)(=O)c1ccc(OCC[C@@H]2C[C@@H]2C2CCN(C(=O)CC3CCCC3)CC2)nc1 [Example 88]
16 nM | CC(C)(C)CC(=O)N1CCC([C@H]2C[C@H]2CCOc2ccc(S(C)(=O)=O)cn2)CC1 [Example 89]
4.8 nM | CS(=O)(=O)c1ccc(OCC[C@@H]2C[C@@H]2C2CCN(c3nc(C4CCC4)no3)CC2)nc1 [Example 212]
9.8 nM | CS(=O)(=O)c1ccc(OCC[C@@H]2C[C@@H]2C2CCN(c3noc(CC4CC4)n3)CC2)nc1 [Example 243]
11.4 nM | CC(C)c1noc(N2CCC([C@H]3C[C@H]3CCOc3ccc(CC(=O)N4CCC(C)(O)C4)c(F)c3)CC2)n1 (some centres unmarked) [Example 174]
1 nM | CC1(OC(=O)N2CCC([C@H]3C[C@H]3CCOc3ccc(S(=O)(=O)C4CC4)c(F)c3)CC2)CC1 [Example 43]
7.9 nM | CCOCc1nc(N2CCC([C@H]3C[C@H]3CCOc3ccc(S(C)(=O)=O)cn3)CC2)no1 [Example 246]
12 nM | CC(C)COC(=O)N1CCC([C@H]2C[C@H]2CCOc2ccc(S(C)(=O)=O)cn2)CC1 [Example 19]
0.4 nM | CS(=O)(=O)c1ccc(OCC[C@@H]2C[C@@H]2C2CCN(C(=O)OC3CCC3)CC2)nc1 [Example 18]
3.6 nM | COCc1noc(N2CCC([C@H]3C[C@H]3CCOc3ccc(CC(=O)N4CCC[C@H]4C(F)(F)F)c(F)c3)CC2)n1 [Example 204]
39 nM | CS(=O)(=O)c1ccc(OCC[C@@H]2C[C@@H]2C2CCN(c3nnc(C4CCC4)o3)CC2)nc1 [Example 248]
6.5 nM | CC(C)Cc1nc(N2CCC([C@H]3C[C@H]3CCOc3ccc(S(C)(=O)=O)cn3)CC2)no1 [Example 235]
2.1 nM | CS(=O)(=O)c1ccc(OCC[C@@H]2C[C@@H]2C2CCN(c3noc(C4(C(F)(F)F)CC4)n3)CC2)nc1 [Example 244]
0.6 nM | CC(C)c1noc(N2CCC([C@H]3C[C@H]3CCOc3ccc(C(=O)C4CC4)c(F)c3)CC2)n1 [Example 117]
2.8 nM | CC(C)c1noc(N2CCC([C@H]3C[C@H]3CCOc3ccc(CC(=O)NC4CCC(F)(F)C4)c(F)c3)CC2)n1 (some centres unmarked) [Example 191]
8.7 nM | CC(C)c1noc(N2CCC([C@H]3C[C@H]3CCOc3ccc(CC(=O)N4Cc5nnc(C(F)(F)F)n5C(C)C4)c(F)c3)CC2)n1 (some centres unmarked) [Example 182]
49 nM | CS(=O)(=O)c1ccc(OCC[C@@H]2C[C@@H]2C2CCN(c3nnc(-c4ccccc4)o3)CC2)nc1 [Example 250]
2 nM | CC(C)c1noc(N2CCC([C@H]3C[C@H]3CCOc3ccc(S(C)(=O)=O)cn3)CC2)n1 [Example 209]
7.7 nM | CCS(=O)(=O)c1ccc(OCC[C@@H]2C[C@@H]2C2CCN(c3nc(C(C)C)no3)CC2)cc1 [Example 29]
